Assays:
Assay in all cases: relative viability (nuclei count vs DMSO), 5 days (fraction); higher = more cells survive
R406 + Pemetrexed = compound: COc1cc(Nc2ncc(F)c(Nc3ccc4c(n3)NC(=O)C(C)(C)O4)n2)cc(OC)c1OC [R406] + Nc1nc2[nH]cc(CCc3ccc(C(=O)N[C@@H](CCC(=O)O)C(=O)O)cc3)c2c(=O)[nH]1 [Pemetrexed] (partner 0.2 µM)
Outline: (§1)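 Relative viability was taken as the ratio of nuclei in treated wells to nuclei in vehicle wells. Lung cancer cell lines in 1536-well plates received compounds by pin tool one day after seeding, either one drug alone or a fixed anchor-drug dose plus five library-drug doses (not always all listed) in √10 steps. Nuclei were counted on 4× images after 5 days of treatment, and values are medians of duplicate plates.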

Daporinad + OSI-027 = compound: O=C(/C=C/c1cccnc1)NCCCCC1CCN(C(=O)c2ccccc2)CC1 [Daporinad] + COc1cccc2cc(-c3nc([C@H]4CC[C@H](C(=O)O)CC4)n4ncnc(N)c34)[nH]c12 [OSI-027] (partner 0.5 µM)
Outline: as §1

Daporinad + Decitabine = compound: O=C(/C=C/c1cccnc1)NCCCCC1CCN(C(=O)c2ccccc2)CC1 [Daporinad] + Nc1ncn([C@H]2C[C@H](O)[C@@H](CO)O2)c(=O)n1 [Decitabine] (partner 2 µM)
Outline: as §1

Daporinad + Olaparib = compound: O=C(/C=C/c1cccnc1)NCCCCC1CCN(C(=O)c2ccccc2)CC1 [Daporinad] + O=C(c1cc(Cc2n[nH]c(=O)c3ccccc23)ccc1F)N1CCN(C(=O)C2CC2)CC1 [Olaparib] (partner 8 µM)
Outline: as §1

Row | Cell Line | relative viability (R406 + Pemetrexed; first compound 0.08 µM) | relative viability (R406 + Pemetrexed; first compound 0.253 µM) | relative viability (R406 + Pemetrexed; first compound 0.8 µM) | relative viability (R406 + Pemetrexed; first compound 2.53 µM) | relative viability (R406 + Pemetrexed; first compound 8 µM) | relative viability (Daporinad + OSI-027; first compound 0.0005 µM) | relative viability (Daporinad + OSI-027; first compound 0.001581 µM) | relative viability (Daporinad + OSI-027; first compound 0.005 µM) | relative viability (Daporinad + OSI-027; first compound 0.01581 µM) | relative viability (Daporinad + Decitabine; first compound 0.0005 µM) | relative viability (Daporinad + Decitabine; first compound 0.001581 µM) | relative viability (Daporinad + Decitabine; first compound 0.005 µM) | relative viability (Daporinad + Decitabine; first compound 0.01581 µM) | relative viability (Daporinad + Olaparib; first compound 0.0005 µM) | relative viability (Daporinad + Olaparib; first compound 0.001581 µM) | relative viability (Daporinad + Olaparib; first compound 0.005 µM) | relative viability (Daporinad + Olaparib; first compound 0.01581 µM)
1 | NCI-H1944 | 0.617 | 0.617 | 0.684 | 0.571 | 0.411 | 0.447 | 0.422 | 0.527 | 0.517 | 0.44 | 0.406 | 0.497 | 0.411 | 0.407 | 0.393 | 0.42 | 0.386
2 | NCI-H1648 | 0.749 | 0.727 | 0.754 | 0.675 | 0.653 | 0.231 | 0.26 | 0.262 | 0.244 | 0.463 | 0.528 | 0.511 | 0.44 | 0.641 | 0.667 | – | 0.523
3 | NCI-H358 | 0.167 | 0.17 | 0.168 | 0.146 | 0.145 | 0.664 | 0.794 | 0.886 | 0.77 | 0.215 | 0.256 | 0.233 | 0.194 | 0.556 | 0.507 | 0.351 | 0.293
4 | EPLC-272H | 0.359 | 0.359 | 0.316 | 0.231 | 0.151 | 0.243 | 0.298 | 0.316 | 0.365 | 0.318 | 0.375 | 0.378 | 0.403 | 0.72 | 0.704 | 0.581 | 0.442
5 | NCI-H1915 | 0.498 | 0.475 | 0.497 | 0.439 | 0.36 | 0.613 | 0.641 | 0.719 | 0.712 | 0.25 | 0.283 | 0.271 | 0.257 | 0.265 | 0.247 | 0.193 | 0.184
6 | NCI-H647 | 0.172 | 0.178 | 0.17 | 0.0932 | 0.0585 | 0.583 | 0.598 | 0.647 | 0.735 | 0.37 | 0.425 | 0.448 | 0.366 | 0.624 | 0.547 | 0.224 | 0.156
7 | NCI-H322M | 0.532 | 0.596 | 0.63 | 0.466 | 0.396 | 0.526 | 0.617 | 0.613 | 0.52 | 0.659 | 0.749 | 0.683 | 0.664 | 0.547 | 0.567 | 0.547 | 0.516
8 | NCI-H522 | 0.832 | 1.04 | 1.09 | 0.937 | 0.747 | 0.612 | 0.942 | 0.762 | 0.667 | 0.626 | 0.689 | 0.634 | 0.628 | 0.659 | 0.621 | 0.573 | 0.49

— the supplement of paper PMC10307832
